Reference: patent US20230263798A1, “COMPOSITIONS AND METHODS FOR TREATING THERAPY RESISTANT CANCER” (The General Hospital Corporation, priority 2020, published 2023)
Entries after “also recorded” stand apart in the source; their conditions may differ.

Tests used:
Type in all cases: cell-based
m6A on RNA = assay: m6A on ribosomal RNA depleted RNA (dot blot, 2D-TLC)
Experimental: The Western blot includes samples with control shRNA or shMETTL3. […] Tubulin and Histone serve as Western blot loading controls. Data are average of 3 replicates +/-SEM. See also FIGS. 2A-2G. […]
To test whether the increased m6A modification enzymes lead to increased m6A modification on RNA, ribosomal RNA depleted RNA from doxorubicin treated cells compared to untreated cells by dot blot analyses was tested. […] Consistent with decreased METTL3 upon knockdown, the dot blot signal is depleted when METTL3 is knocked down (FIG. 1B). Second, RNA from doxorubicin treated cells for m6A by two-dimensional-thin layer chromatography separation (2D-TLC) was performed (H. Grosjean, G. Keith, L. Droogmans, Detection and quantification of modified nucleotides in RNA using thin-layer chromatography. Methods in molecular biology (Clifton, N.J.) 265, 357-391 (2004)).

METTL14 = assay: Western blot analysis of METTL14 in MCF7 cells; conditions: for METTL14 level in doxorubicin treated cells co-treated with agent: doxorubicin treated cells plus agent (FIGS. 3D and 3E)
Text: (§1) Tubulin and Histone serve as Western blot loading controls. Data are average of 3 replicates +/-SEM. See also FIGS. 4A-4H.
(§2) Actin and Tubulin are loading controls for Western blots. Data are average of 3 replicates +/-SEM.
(§3) Western blot is shown of other RNA binding proteins that increase in mass spectrometry data. […] FIGS. 6J and 6K show Hexim, PPM1G and HuR increase in chemotreated patient samples and on doxorubicin treatment.
(§4) If METTL3 is increased by Sal003, then m6A on RNA should increase in such conditions.

phospho-elF2α [1] = assay: Western blot of elF2α phosphorylation in MCF7 cells; conditions: for elF2α phosphorylation: MCF7 cells, agent alone, Western blot; for elF2α phosphorylation in doxorubicin treated cells with agent: addition to doxorubicin treated cells (FIG. 8F)
Experimental: (§5) FIGS. 8C and 8D show Western blot analysis of PARP1, phospho-elF2α, METTL3 with doxorubicin or Sal003 treatment. […] 500 nM Doxorubicin treated MCF7 cells were co-treated with 6uM of Enzastaurin or DMSO buffer. […] Data are average of 3 replicates +/-SEM.

METTL3 [2] = assay: Western blot analysis of METTL3 in MCF7 cells; conditions: for METTL3 level in doxorubicin treated cells co-treated with agent: doxorubicin treated cells plus agent vs buffer treated
Text: The Western blot includes samples with control shRNA or shMETTL3. […] Tubulin and Histone serve as Western blot loading controls. Data are average of 3 replicates +/-SEM. See also FIGS. 2A-2G.
(§6) Data are average of 3 replicates +/-SEM. Tubulin serves as the loading control.
as §1, §2, §5
(§7) To determine the mechanisms of specific mRNA expression in chemosurviving cancer cells, we examined RNA binding regulators in chemosurviving MCF7 breast cancer cells, isolated after doxorubicin chemotherapy treatment.

MCF7 cells = assay: Doxorubicin chemosurvival of MCF7 cells; conditions: for doxorubicin chemosurvival with co-treatment: 500 nM Doxorubicin treated MCF7 cells co-treated with agent (5 uM Trazodone, 5 uM ISRIB, 6uM Enzastaurin) vs DMSO buffer
Experimental: This was tested in METTL3 overexpression cells compared to CD-M3 cells compared to control Actin mRNA by qPCR. […] 500 nM Doxorubicin treated MCF7 cells were co-treated with (i) 5 uM of Trazodone, (ii) 5 uM of ISRIB, or DMSO buffer. […] Data are average of 3 replicates +/-SEM. Actin and Tubulin are loading controls for Western blots. See also FIG. 8A-8l.
as §5

[3] = system: CD14+ monocytes, CD8+ T cells, and NK (NK92) cells; assay: Co-culture of treated cancer cells with immune cells; conditions: untreated or doxorubicin or gemcitabine treated cells plus agent
Text: APOBEC3B would lead to neoepitopes that could trigger the immune system. However, this is not readily seen as inhibitors of immune cells such as TGF-β that inhibits NK cells are increased in doxorubicin treated breast cancer cells. […] M6A also downregulates antiviral innate immune response while promoting ADAR1 that suppresses antiviral immunity. Therefore, inhibition of METTL3 would activate them.

phospho-elF2α [4] = assay: Western blot of elF2α phosphorylation in BT549 cells; conditions: over time of treatment
Experimental: as §6
as §7, with “treatment. […] The increase observed is transient and is not observed at 48 h of treatment (FIG. 2A).” for “treatment.”

METTL3 [5] = assay: Western blot of METTL3 in BT549 cells; conditions: over time of treatment
Hexim1 = assay: Western blot of Hexim1; conditions: treated cells
Text: as §3
Other RNA binding proteins such as HEXIM1 and PPM1G that increase in doxorubicin surviving cells also associate with METTL3 mRNA and with HuR. The indirect associated protein, Hexim1 is a transcription regulator but also associates with other complexes and RNAs and promotes mRNA stability under nucleotide stress. […] The phosphatase PPM1G is known to associate with Hexim1 and is activated by DNA damage/ATM signaling upon chemotherapy treatment, and upon PI3K/Akt inhibition, consistent with these conditions where METTL3 increases. On Akt inhibition, PPM1G dephosphorylates 4EBP; this inhibits canonical translation, consistent with specific mRNA translation elicited in these conditions.
Therefore, we tested whether Hexim1 was required for METTL3 levels.

phospho-elF2α [6] = assay: Western blot of elF2α phosphorylation in THP1 cells; conditions: 1 µM Cytarabine over time
METTL3 [7] = assay: Western blot of METTL3 in THP1 cells; conditions: 1 µM Cytarabine over time
METTL3 mRNA = METTL3 mRNA level and translation (qPCR, polysome fractionation, nascent amino acid labeling); conditions: treated vs buffer treated cells, polysome fractionation and qPCR
Experimental: as §1, §2
To verify that the increase in METTL3 was at the translation level, polysome analysis was conducted first. […] We next verified increased polysome association of METTL3 mRNA with Y10B antibody immunoprecipitation in doxorubicin treated and in Sal003 cells compared to buffer treated cells (FIGS. 3I and 4F).

ATF4 = assay: Western analysis of ATF4 (ISR response gene); conditions: for ATF4 level in doxorubicin treated cells co-treated with agent: doxorubicin treated cells plus agent vs buffer treated
Text: as §4

PARP1 = assay: Western blot analysis of PARP1; conditions: treated cells
Experimental: as §5
Consistently, doxorubicin treated cells are sensitive to PARP inhibitors, such as Talazoparib (BMN-673, FIG. 8B).

[8] = MCF7 cells, agent alone vs untreated/buffer, Western blot
[9] = ribosomal RNA depleted RNA from treated vs untreated MCF7 cells, dot blot or 2D-TLC

CCC(=O)N1CCN(c2ccc(-n3c(=O)ccc4cnc5ccc(-c6cnc7ccccc7c6)cc5c43)cc2C(F)(F)F)CC1 [Torin1]
m6A on RNA (m6A on RNA; MCF7 3D tumor spheres, dot blot): increased
METTL14 level (METTL14; MCF7 3D tumor spheres): increase
elF2α phosphorylation (phospho-elF2α [1]): elF2α phosphorylation
METTL3 level (METTL3 [2]; MCF7 3D tumor spheres): increase
METTL3 level (METTL3 [2]; [8]): increased

C[S+]([O-])c1ccc(-c2nc(-c3ccncc3)c(-c3ccc(F)cc3)[nH]2)cc1 (centres unmarked) [SB203580]
METTL3 level in doxorubicin treated cells co-treated with agent (METTL3 [2]; Western blot): reduces METTL3 increase

Cn1c(=O)n(-c2ccc(C(C)(C)C#N)cc2)c2c3cc(-c4cnc5ccccc5c4)ccc3ncc21 [BEZ 235]
elF2α phosphorylation (phospho-elF2α [1]): elF2α phosphorylation
METTL3 level (METTL3 [2]; [8]): Increase

Cn1ncnc1[C@H]1c2n[nH]c(=O)c3cc(F)cc(c23)N[C@@H]1c1ccc(F)cc1 [Talazoparib]
doxorubicin chemosurvival with co-treatment (MCF7 cells): sensitive

[H]/N=C(/N)N/C(=N/[H])NCCc1ccccc1 [phenformin]
elF2α phosphorylation in doxorubicin treated cells with agent (phospho-elF2α [1]): reduction
survival of treated cancer cells co-cultured with immune cells [3]: loss of survival
METTL3 level in doxorubicin treated cells co-treated with agent (METTL3 [2]; Western blot): decreased induction
doxorubicin chemosurvival with co-treatment (MCF7 cells): decreased chemosurvival; also recorded: reduced doxorubicin survival

C/C=C(/C)C(=O)O[C@H]1C(C)=C2[C@H]([C@@H]1OC(=O)CCCCCCC)[C@@](C)(OC(C)=O)C[C@H](OC(=O)CCC)[C@@]1(O)[C@H]2OC(=O)[C@@]1(C)O [thapsigargin]
METTL14 level (METTL14; [8]): increase
elF2α phosphorylation (phospho-elF2α [1]): induces
METTL3 level (METTL3 [2]; [8]): increase

Cn1cc(C2=C(c3cn(C4CCN(Cc5ccccn5)CC4)c4ccccc34)C(=O)NC2=O)c2ccccc21 [Enzastaurin]
METTL3 level in doxorubicin treated cells co-treated with agent (METTL3 [2]; Western blot): reduced
doxorubicin chemosurvival with co-treatment (MCF7 cells): reduced

Nc1ncnc2c1nnn2[C@@H]1O[C@H](CO)[C@@H](O)[C@H]1O [8-azaadenosine]
survival of treated cancer cells co-cultured with immune cells [3]: sensitive to anti-tumor immunity
doxorubicin chemosurvival with co-treatment (MCF7 cells): reduced doxorubicin survival

Nc1ccn([C@@H]2O[C@H](CO)[C@@H](O)C2(F)F)c(=O)n1 [Gemcitabine]
elF2α phosphorylation (phospho-elF2α [4]): increase over time
elF2α phosphorylation (phospho-elF2α [1]): increase over time
METTL3 level (METTL3 [2]; [8]): increase over time
METTL3 level (METTL3 [5]): increase over time

COc1ccc(COc2cc3oc(=O)c4cc(C(C)O)ccc4c3cc2OC)cc1 (centres unmarked) [Palomid 529]
METTL3 level (METTL3 [2]; [8]): Increase

CC(=O)O[C@H]1C(=O)[C@@]2(C)[C@H]([C@H](OC(=O)c3ccccc3)[C@]3(O)C[C@H](OC(=O)[C@H](O)[C@@H](NC(=O)c4ccccc4)c4ccccc4)C(C)=C1C3(C)C)[C@]1(OC(C)=O)CO[C@@H]1C[C@@H]2O [Taxol]
elF2α phosphorylation (phospho-elF2α [4]): increase over time
METTL3 level (METTL3 [5]): increase over time

CC(C)(C)Cn1c(N)nc2ccc(-c3[nH]c(C(C)(C)C)nc3-c3ccc(F)cc3)nc21 [LY2228820]
METTL3 level in doxorubicin treated cells co-treated with agent (METTL3 [2]; Western blot): reduces METTL3 increase

poly I:C
m6A on RNA (m6A on RNA; [9]): increased
METTL14 level (METTL14; [8]): increase
elF2α phosphorylation (phospho-elF2α [1]): induces
Hexim1 level (Hexim1): increases
METTL3 level (METTL3 [2]; [8]): increase

CC(=O)NCCCCCCNC(C)=O [HMBA]
METTL14 level (METTL14; [8]): increases
elF2α phosphorylation (phospho-elF2α [1]): elF2α phosphorylation
Hexim1 level (Hexim1): increased
METTL3 level (METTL3 [2]; [8]): increased

Nc1ccn([C@@H]2O[C@H](CO)[C@@H](O)[C@@H]2O)c(=O)n1 [Cytarabine]
elF2α phosphorylation (phospho-elF2α [6]): transient increase
METTL3 level (METTL3 [7]): transient increase

CN(C)C(=N)N=C(N)N [metformin]
elF2α phosphorylation in doxorubicin treated cells with agent (phospho-elF2α [1]): reduction
survival of treated cancer cells co-cultured with immune cells [3]: loss of survival
METTL3 level in doxorubicin treated cells co-treated with agent (METTL3 [2]; Western blot): decreased induction
doxorubicin chemosurvival with co-treatment (MCF7 cells): decreased chemosurvival

O=C(/C=C/c1ccccc1)NC(NC(=S)Nc1ccc(Cl)cc1)C(Cl)(Cl)Cl (centres unmarked) [Sal003]
METTL3 mRNA on polysomes compared to monosomes (METTL3 mRNA): increased
m6A on RNA (m6A on RNA; [9]): increased
METTL14 level (METTL14; [8]): increased
non-canonical translation of ATF4 (ATF4; MCF7 cells, agent alone): induced
elF2α phosphorylation (phospho-elF2α [1]): prevented dephosphorylation
PARP1 level (PARP1): increases
METTL3 level (METTL3 [2]; [8]): increased

O=[N+]([O-])c1ccc(Nc2nc(N3CCOCC3)nc(N3CCOCC3)n2)cc1 [MHY1485]
METTL3 level (METTL3 [2]; [8]): decreased

O=C(COc1ccc(Cl)cc1)NC1CCC(NC(=O)COc2ccc(Cl)cc2)CC1 (centres unmarked) [ISRIB]
METTL14 level in doxorubicin treated cells co-treated with agent (METTL14): prevent
ATF4 level in doxorubicin treated cells co-treated with agent (ATF4): do not show increase
survival of treated cancer cells co-cultured with immune cells [3]: loss of survival
METTL3 level in doxorubicin treated cells co-treated with agent (METTL3 [2]; Western blot): do not show increase
doxorubicin chemosurvival with co-treatment (MCF7 cells): significant decrease

O=c1n(CCCN2CCN(c3cccc(Cl)c3)CC2)nc2ccccn12 [trazodone]
METTL14 level in doxorubicin treated cells co-treated with agent (METTL14): prevent
ATF4 level in doxorubicin treated cells co-treated with agent (ATF4): do not show increase
survival of treated cancer cells co-cultured with immune cells [3]: loss of survival
METTL3 level in doxorubicin treated cells co-treated with agent (METTL3 [2]; Western blot): do not show increase
doxorubicin chemosurvival with co-treatment (MCF7 cells): significant decrease
doxorubicin chemosurvival of shMETTL3 cells with agent (MCF7 cells; METTL3 depleted (shMETTL3) cells, doxorubicin plus Trazodone vs buffer (FIG. 8A)): Synergistic decrease in chemosurvival was not observed
